Results reported in the NIST ThermoML archive (doi:10.1021/je060271a).

Details: 343.15 K, Liquid, Vibrating tube method

CCCCCCCC(=O)OCC(COC(=O)CCCCCCC)(COC(=O)CCCCCCC)COC(=O)CCCCCCC [pentaerythritol tetraoctanoate]
Details | mass density [kg/m3]
27160 kPa | 944.5
27200 kPa | 944.7
27241 kPa | 944.7
27290 kPa | 944.7
27331 kPa | 944.6
27371 kPa | 944.7
27412 kPa | 944.8
27462 kPa | 944.7
27503 kPa | 944.8
27544 kPa | 944.8
27594 kPa | 944.9
27637 kPa | 944.8
27680 kPa | 944.9
27721 kPa | 944.9
27772 kPa | 945
27815 kPa | 945.1
27857 kPa | 945
27909 kPa | 945
27951 kPa | 945
28003 kPa | 945
28046 kPa | 945.1
28089 kPa | 945.1
28141 kPa | 945.3
28185 kPa | 945.2
28231 kPa | 945.3
28277 kPa | 945.4
28332 kPa | 945.4
28378 kPa | 945.4
28426 kPa | 945.4
28478 kPa | 945.5
28513 kPa | 945.4
28545 kPa | 945.5
28583 kPa | 945.4
28615 kPa | 945.4
28647 kPa | 945.5
28680 kPa | 945.5
28720 kPa | 945.7
28753 kPa | 945.6
28786 kPa | 945.6
28818 kPa | 945.8
28858 kPa | 945.7
28890 kPa | 945.7
28923 kPa | 945.7
28963 kPa | 945.7
28996 kPa | 945.8
29036 kPa | 945.8
29070 kPa | 945.9
29104 kPa | 945.8
29138 kPa | 945.9
29179 kPa | 945.9
29207 kPa | 945.8
29247 kPa | 946
29281 kPa | 945.9
29321 kPa | 945.9
29355 kPa | 946
29389 kPa | 946
29424 kPa | 946
29465 kPa | 946
29500 kPa | 946
29534 kPa | 946.1
29570 kPa | 946.1
29612 kPa | 946.1
29648 kPa | 946.2
29685 kPa | 946.2
29720 kPa | 946.2
29754 kPa | 946.3
29797 kPa | 946.2
29832 kPa | 946.2
29874 kPa | 946.2
29910 kPa | 946.3
29945 kPa | 946.3
29987 kPa | 946.4
30024 kPa | 946.4
30060 kPa | 946.5
30096 kPa | 946.4
30139 kPa | 946.4
30175 kPa | 946.5
30212 kPa | 946.4
30255 kPa | 946.6
30291 kPa | 946.5
30327 kPa | 946.7
30371 kPa | 946.5
30525 kPa | 946.7
30562 kPa | 946.8
30607 kPa | 946.7
30646 kPa | 946.7
30682 kPa | 946.8
30727 kPa | 946.8
30764 kPa | 946.9
30802 kPa | 946.8
30847 kPa | 946.8
30885 kPa | 946.9
30923 kPa | 947
31006 kPa | 946.9
31045 kPa | 947
31091 kPa | 947
31130 kPa | 947
31169 kPa | 947.2
31208 kPa | 947.1
31255 kPa | 947.1
31294 kPa | 947.2
31341 kPa | 947.1
31380 kPa | 947.2
31411 kPa | 947.1
31459 kPa | 947.2
31506 kPa | 947.2
31538 kPa | 947.4
31586 kPa | 947.3
31633 kPa | 947.5
31674 kPa | 947.4
31717 kPa | 947.3
31758 kPa | 947.5
31807 kPa | 947.4
31848 kPa | 947.5
31898 kPa | 947.5
31942 kPa | 947.5
31985 kPa | 947.6
32036 kPa | 947.6
32074 kPa | 947.7
32104 kPa | 947.6
32141 kPa | 947.6
32172 kPa | 947.8
32204 kPa | 947.8
32242 kPa | 947.7
32273 kPa | 947.7
32305 kPa | 947.9
32342 kPa | 947.7
32374 kPa | 947.9
32405 kPa | 947.8
32443 kPa | 947.8
32475 kPa | 947.8
32507 kPa | 947.8
32545 kPa | 947.9
32577 kPa | 947.9
32610 kPa | 948
32644 kPa | 948
32671 kPa | 948
32710 kPa | 948
32736 kPa | 948.1
32762 kPa | 948.1
32840 kPa | 948
32885 kPa | 948.1
32925 kPa | 948
32958 kPa | 948.2
32991 kPa | 948.3
33030 kPa | 948.3
33064 kPa | 948.3
33099 kPa | 948.3
